Measured values published in patent US9340575B2, “Agonists and antagonists of the urotensinergic system” (INSTITUT NATIONAL DE LA RECHERCHE SCIENTIFIQUE, priority 2011, dated 2016).
Like-named read-outs stand apart in the source and are kept apart here. Marks after values point to notes of the source that are not given here. Bridge positions count the residues as written; N and C are the ends. Ends that are not written are not given here.

Key:
[1] = target: T1, human urotensin II receptor (UT) (Homo sapiens, UniProt Q9UKP6); assay: Competitive radioligand binding on CHO-UT cells; conditions: for IC50: 125I-hUII 0.2 nM, CHO-UT cells, 95% confidence limits in parentheses, read-out: Binding IC50
T1 construct: expressed in transfected cells; host or cells: CHO cells (CHO-UT), stably transfected, G418 selection
T1 sequence (Q9UKP6 1-389): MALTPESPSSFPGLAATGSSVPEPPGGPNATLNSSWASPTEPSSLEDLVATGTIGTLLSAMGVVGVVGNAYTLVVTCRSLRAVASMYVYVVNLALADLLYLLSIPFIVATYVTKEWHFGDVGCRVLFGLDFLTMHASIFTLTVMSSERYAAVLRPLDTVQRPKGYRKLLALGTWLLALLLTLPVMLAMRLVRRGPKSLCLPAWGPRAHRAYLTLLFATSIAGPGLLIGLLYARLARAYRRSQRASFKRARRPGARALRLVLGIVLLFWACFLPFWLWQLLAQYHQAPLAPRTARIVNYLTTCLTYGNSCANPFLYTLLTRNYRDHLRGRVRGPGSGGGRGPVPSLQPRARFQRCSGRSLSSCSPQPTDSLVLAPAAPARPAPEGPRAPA
Procedure: Transfected CHO cells expressing the human urotensin receptor (CHO-UT) were maintained in Ham-F12 medium with 10% fetal bovine serum (FBS), 2 mM L-glutamine, 100 UI/mL each of penicillin and streptomycin, and 400 μg/mL G418. […] Binding assays were following known literature procedures using CHO cells stably transfected with hGPR14. […] After 90 min of incubation at room temperature, cells were washed, lysed, and the cell-bound radioactivity was quantified using a γ-counter. […] The cells were then washed, lysed, and the radioactivity counted on a γ-counter (1470 Automatic Gamma Counter, Perkin Elmer). Binding and functional experiments were performed at least in triplicate and data, expressed as mean±S.E.M, were analyzed using the Prism software (Graph Pad Software, San Diego, Calif.). In all experiments, n represents the total number of animals studied or individual assays performed. The EC50, pEC50, pIC50 values as well as the Emax value were determined from the concentration-response curves using a sigmoidal dose-response fit with variable slope. […] The slope is calculated from the double reciprocal plot of equiactive concentrations of agonist in the presence and absence of antagonist.

rat thoracic aorta rings = type: cell-based; conditions: for Aortic Ring contraction pEC50: endothelium-denuded rat thoracic aorta; for Aortic Ring contraction Emax (%): percentage of contraction induced by KCl (40 mM); for Aortic Ring contraction Emax (%), maximum efficacy at 10^−5.5M: percentage of KCl (40 mM) contraction
Procedure: Binding and functional experiments were performed at least in triplicate and data, expressed as mean±S.E.M, were analyzed using the Prism software (Graph Pad Software, San Diego, Calif.). In all experiments, n represents the total number of animals studied or individual assays performed. The EC50, pEC50, pIC50 values as well as the Emax value were determined from the concentration-response curves using a sigmoidal dose-response fit with variable slope. […] The slope is calculated from the double reciprocal plot of equiactive concentrations of agonist in the presence and absence of antagonist.

anaesthetized rats = assay: Hemodynamic assessment (arterial blood pressure) in anaesthetized rats; type: in vivo, rat
Procedure: Male Sprague-Dawley rats, weighing 350-400 g, were anaesthetized by isoflurane inhalation delivered in 100% oxygen (1 l/min) from an Ohmeda Tec 4 anaesthetic vaporizer (Somatechnology, Inc., Bloomfield, Conn., USA). Anaesthesia was maintained by mask inhalation of isoflurane vaporized at concentrations of up to 3% in the induction phase, at 1.5% during acute surgical procedures and at 0.8-1.0% during experimental observations. […]. […] A period of stabilisation of 30 min was observed and the following experimental protocols were then performed and arterial blood pressure was evaluated. During isoflurane inhalation, no breathing complications or changes in blood pressure were observed. […].
In a preliminary study, individual rats received a single i.v. injection of hUII ranging from 1 to 30 nmol/kg. A dose-response curve, reflecting the effect of hUII on the change in blood pressure, was then determined.
In this set of experiments, five groups of rats were used. […] […]. Hemodynamic changes were continuously captured by the pressure probe over a period of 1 h. The maximum rise and the maximum drop in blood pressure was determined and analyzed using the PowerLab software (ADInstruments, Colorado Springs, Colo., USA).
In the control group, the rats received two doses of hUII (10 nmol/kg) with a 30 min interval between the first and second injection.

Compound	EC50 (rat thoracic aorta rings)	Aortic Ring contraction pEC50 (rat thoracic aorta rings)	Aortic Ring contraction Emax (%) (rat thoracic aorta rings)	Agonist behaviour in aortic ring contraction (in words) (rat thoracic aorta rings)	also measured
CC(C)[C@H](NC(=O)[C@@H]1CSSC[C@H](NC(=O)[C@H](C)N)C(=O)N[C@@H](Cc2ccccc2)C(=O)N[C@@H](c2ccccc2)C(=O)N[C@@H](CCCCN)C(=O)N[C@@H](Cc2ccc(O)cc2)C(=O)N1)C(=O)O [Compound 14, H-Ala-Cys-Phe-Phg-Lys-Tyr-Cys-Val-OH]	0.251 µM	6.60 ± 0.15	102 ± 9%		Binding affinity for UT (in words) [1]: high binding affinity; IC50 [1]: 0.029 µM
CC(C)[C@H](NC(=O)[C@@H]1CSSC(C)(C)[C@H](NC(=O)[C@H](C)N)C(=O)N[C@@H](Cc2ccccc2)C(=O)N2CCc3ccccc3[C@H]2C(=O)N[C@@H](CCCCN)C(=O)N[C@@H](Cc2ccc(O)cc2)C(=O)N1)C(=O)O [Compound 20, H-Ala-Pen-Phe-Tiq-Lys-Tyr-Cys-Val-OH]					IC50 [1]: > 10 µM
CC(C)[C@H](NC(=O)[C@@H]1CSSC[C@H](NC(=O)[C@H](C)N)C(=O)N[C@@H](Cc2ccccc2)C(=O)N2Cc3ccccc3C[C@@H]2C(=O)N[C@@H](CCCCN)C(=O)N[C@@H](Cc2ccc(O)cc2)C(=O)N1)C(=O)O [Compound 19, [D-Tic^4]URP]	0.259 µM	6.08 ± 0.04	128 ± 12%		
CC(C)[C@H](NC(=O)[C@@H]1CSSC[C@H](NC(=O)[C@H](C)N)C(=O)N[C@@H](Cc2ccccc2)C(=O)N[C@H](Cc2cccc3ccccc23)C(=O)N[C@@H](CCCCN)C(=O)N[C@@H](Cc2ccc(O)cc2)C(=O)N1)C(=O)O [Compound 4, [D-1-Nal^4]URP]	0.825 µM	6.08 ± 0.04			Aortic Ring contraction Emax (%), maximum efficacy at 10^−5.5M (rat thoracic aorta rings): 34%
CC(C)[C@H](NC(=O)[C@@H]1CSSC[C@H](NC(=O)[C@H](C)N)C(=O)N[C@@H](Cc2ccccc2)C(=O)N[C@@H](CC2CCCCC2)C(=O)N[C@@H](CCCCN)C(=O)N[C@@H](Cc2ccc(O)cc2)C(=O)N1)C(=O)O [Compound 6, H-Ala-Cys-Phe-Cha-Lys-Tyr-Cys-Val-OH]	> 1 µM	<6		full but weak agonist	Reduction in binding affinity compared to compound 5 ([1]; versus compound 5): 3 fold; Aortic Ring contraction Emax (%), maximum efficacy at 10^−5.5M (rat thoracic aorta rings): 77^d %
[Pro^7]hUII: hUII in which the Trp residue is replaced by a Pro moiety (ETPDCFPKYCV-OH; disulfide 5-10 (inferred))				weak agonistic effect	Aortic Ring contraction Emax (%), maximum efficacy at 10^−5.5M (rat thoracic aorta rings): 69%
CC(C)[C@H](NC(=O)[C@@H]1CSSC[C@H](NC(=O)[C@H](C)N)C(=O)N[C@@H](Cc2ccccc2)C(=O)N[C@@H](Cc2ccc(I)cc2)C(=O)N[C@@H](CCCCN)C(=O)N[C@@H](Cc2ccc(O)cc2)C(=O)N1)C(=O)O [Compound 5, H-Ala-Cys-Phe-Phe(I)-Lys-Tyr-Cys-Val-OH]					Drop in binding affinity on substitution of Trp ([1]; versus native peptide): 4 fold
CC(C)[C@H](NC(=O)[C@@H]1CSSC[C@H](NC(=O)[C@H](C)N)C(=O)N[C@@H](Cc2ccccc2)C(=O)N[C@H](C(C)(C)C)C(=O)N[C@@H](CCCCN)C(=O)N[C@@H](Cc2ccc(O)cc2)C(=O)N1)C(=O)O [Compound 8, [D-Tbg^4]URP]	0.262 µM				
CC(C)[C@H](NC(=O)[C@@H]1CSSC[C@H](NC(=O)[C@H](C)N)C(=O)N[C@@H](Cc2ccccc2)C(=O)N[C@@H](C(c2ccccc2)c2ccccc2)C(=O)N[C@@H](CCCCN)C(=O)N[C@@H](Cc2ccc(O)cc2)C(=O)N1)C(=O)O [Compound 9, H-Ala-Cys-Phe-Dip-Lys-Tyr-Cys-Val-OH]	> 1 µM	<6		weak UT agonist	Aortic Ring contraction Emax (%), maximum efficacy at 10^−5.5M (rat thoracic aorta rings): 23^d %

Now from value to compound, other results behind:

EC50 (rat thoracic aorta rings)	Aortic Ring contraction pEC50 (rat thoracic aorta rings)	Compound	Aortic Ring contraction Emax (%) (rat thoracic aorta rings)	Agonist behaviour in aortic ring contraction (in words) (rat thoracic aorta rings)	also measured
0.181 µM	6.42 ± 0.13	CC(C)[C@H](NC(=O)[C@@H]1CSSC[C@H](NC(=O)[C@H](C)N)C(=O)N[C@@H](Cc2ccccc2)C(=O)N[C@H]2Cc3c([nH]c4ccccc34)CN(C2=O)[C@@H](CCCCN)C(=O)N[C@@H](Cc2ccc(O)cc2)C(=O)N1)C(=O)O [Compound 12, H-Ala-Cys-Phe-Aia-Lys-Tyr-Cys-Val-OH]	51 ± 4%		Binding affinity for UT (in words) [1]: low binding affinity
0.001 µM	9.08 ± 0.25	CC(C)[C@H](NC(=O)[C@@H]1CSSC[C@H](NC(=O)[C@H](CC(=O)O)NC(=O)[C@@H]2CCCN2C(=O)[C@@H](NC(=O)[C@@H](N)CCC(=O)O)[C@@H](C)O)C(=O)N[C@@H](Cc2ccccc2)C(=O)N[C@@H](Cc2c[nH]c3ccccc23)C(=O)N[C@@H](CCCCN)C(=O)N[C@@H](Cc2ccc(O)cc2)C(=O)N1)C(=O)O [Compound 1, reference compound]	117 ± 7%		Aortic Ring contraction pEC50 (rat thoracic aorta rings; listed as hUII): 8.98±0.21; Aortic Ring contraction Emax (%) (rat thoracic aorta rings; listed as hUII): 124±8%; Hemodynamic response to bolus i.v. injection (anaesthetized rats; 0.01 μmol/kg i.v.): biphasic hemodynamic response; Time of hypotension nadir (anaesthetized rats; 0.01 μmol/kg i.v.): ~6 min; Time of pressor phase peak (anaesthetized rats; 0.01 μmol/kg i.v.): ~1 min; Response to repeated injections (anaesthetized rats; 10 nmol/kg twice, 30 min interval): equivalent biphasic responses; Effect of prior hUII injection on hypotensive effect of URP (anaesthetized rats; URP injected 30 min after hUII, 10 nmol/kg): significantly reduced; Dose giving the most significant drop in blood pressure (anaesthetized rats; single i.v. injection, 1 to 30 nmol/kg tested): 10 nmol/kg
0.159 µM		CC(C)[C@H](NC(=O)[C@@H]1CSSC[C@H](NC(=O)[C@H](C)N)C(=O)N[C@@H](Cc2ccccc2)C(=O)N[C@@H]2Cc3c([nH]c4ccccc34)CN(C2=O)[C@@H](CCCCN)C(=O)N[C@@H](Cc2ccc(O)cc2)C(=O)N1)C(=O)O [Compound 13, [D-Aia^4]URP]			
0.054 µM	7.27 ± 0.24	CC(C)[C@H](NC(=O)[C@@H]1CSSC[C@H](NC(=O)[C@H](C)N)C(=O)N[C@@H](Cc2ccccc2)C(=O)N[C@@H](Cc2cccc3ccccc23)C(=O)N[C@@H](CCCCN)C(=O)N[C@@H](Cc2ccc(O)cc2)C(=O)N1)C(=O)O [Compound 3, H-Ala-Cys-Phe-Nal-Lys-Tyr-Cys-Val-OH]	86 ± 8%	almost equipotent analog	
0.022 µM	7.66 ± 0.11	CC(C)[C@H](NC(=O)[C@@H]1CSSC[C@H](NC(=O)[C@H](C)N)C(=O)N[C@@H](Cc2ccccc2)C(=O)N2CCc3ccccc3[C@H]2C(=O)N[C@@H](CCCCN)C(=O)N[C@@H](Cc2ccc(O)cc2)C(=O)N1)C(=O)O [Compound 16, H-Ala-Cys-Phe-Tiq-Lys-Tyr-Cys-Val-OH]	126 ± 5%	contractile efficacy and potency comparable to the endogenous peptides	Binding affinity for UT (in words) [1]: high binding affinity
0.021 µM	7.68 ± 0.17	CC(C)[C@H](NC(=O)[C@@H]1CSSC[C@H](NC(=O)[C@H](C)N)C(=O)N[C@@H](Cc2ccccc2)C(=O)N2CCc3ccccc3[C@@H]2C(=O)N[C@@H](CCCCN)C(=O)N[C@@H](Cc2ccc(O)cc2)C(=O)N1)C(=O)O [Compound 17, [D-Tiq^4]URP]	113 ± 7%		
